Consider seven molecules from ChEMBL document CHEMBL1201862, “PubChem BioAssay data set” (2004).

“And” between values parts separate entries of the source, which are not always exact repeats. Equal values may be shown once. The source made the active and inactive calls.

In series [1] the test system is HEK293. Put plainly: cytotoxicity in HEK293T NF-kB-Luc cells, SAR follow-up, cytotoxicity control for NF-kB activator project, cell-based, resazurin fluorescence (AID 493251). The following applies: Homo sapiens. The format is functional. For orientation: Alamar Blue is a resazurin reagent that responds to reducing activity.
A further series concerns Jurkat. Put plainly: SAR Analysis of small molecule inhibitors of T-cell specific antigen receptor-induced NF-kB activation in a Jurkat cell line using a luminescence assay - Set 2. [Related pubchem assays (depositor defined):AID435003, AID435012, AID465]. The following applies: Homo sapiens. The series is classed as functional, cell-based.
For series [2], the target named is T1, Microphthalmia-associated transcription factor (Homo sapiens, UniProt O75030).
T1 sequence (O75030 whole entry): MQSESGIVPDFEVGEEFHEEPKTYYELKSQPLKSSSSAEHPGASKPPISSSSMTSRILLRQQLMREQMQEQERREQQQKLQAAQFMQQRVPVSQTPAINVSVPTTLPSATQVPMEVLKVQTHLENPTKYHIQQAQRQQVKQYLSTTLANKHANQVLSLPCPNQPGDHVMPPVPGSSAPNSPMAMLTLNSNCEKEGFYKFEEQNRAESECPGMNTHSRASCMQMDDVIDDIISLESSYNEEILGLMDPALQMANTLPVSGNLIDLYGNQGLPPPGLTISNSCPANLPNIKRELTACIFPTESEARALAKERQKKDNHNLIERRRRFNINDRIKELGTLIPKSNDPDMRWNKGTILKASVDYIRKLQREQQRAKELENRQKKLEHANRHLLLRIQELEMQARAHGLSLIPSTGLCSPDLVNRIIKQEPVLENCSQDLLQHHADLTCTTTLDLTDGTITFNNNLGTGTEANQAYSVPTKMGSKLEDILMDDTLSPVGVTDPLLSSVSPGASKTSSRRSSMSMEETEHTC
As to the kind of experiment: TRPM1 promoter luciferase signal decrease, dose response, MITF inhibitor project, cell-based, SK-MEL-5, cherry-picked, set 3 (AID 493073).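 Further: SK-MEL-5 melanoma cells with luciferase driven by the MITF target TRPM1 promoter.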 The series is classed as functional.

Series [3] has as its system HEK293. As to the kind of experiment: SAR Analysis of small molecule inhibitors of T-cell specific antigen receptor-induced NF-kB activation in a HEK-293T cell line using a luminescence assay - Set 2. [Related pubchem assays (depositor defined):AID435003, AID435012, AID489026]. The format is functional, cell-based. The following applies: Homo sapiens.
Series [4] is described as follows: cytotoxicity in HEK-293T cells, dose response, cytotoxicity control for TCR NF-kB inhibitor project, luminescence, T-cell screen hits (AID 489026).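 Further: cells exposed to compound about 14 hours before the viability readout.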 The format is functional, cell-based.
Series [5] addresses T2, Cytochrome P450 2D6 (Homo sapiens, UniProt P10635).
In another series the target is Cytochrome P450 2C19 (Homo sapiens, UniProt P33261). Put plainly: Cytochrome panel assay with activity outcomes. Panel member name: p450-cyp2c19 Compounds with AC50 equal or less than 10 uM are considered active. The series is classed as functional. The following applies: read-out: AC50.
Series [6] can be described thus: growth induction of Burl-1 ts yeast mutant, dose response, counter-screen for SUMOylation pathway inhibitor project, whole organism, S. cerevisiae, luminescence (AID 463199). The series is classed as functional.
The next series has as its target Phosphomannomutase 2 (Homo sapiens, UniProt O15305). As to the kind of experiment: Counter screen SAR assay for PMM2 inhibitors via a fluorescence intensity assay. [Related pubchem assays (depositor defined):AID1545, AID1574]. (Counterscreens check selectivity or assay interference.)
For series [7], the target named is T3, Mannose-6-phosphate isomerase (Homo sapiens, UniProt P34949).
T3 sequence (P34949 whole entry): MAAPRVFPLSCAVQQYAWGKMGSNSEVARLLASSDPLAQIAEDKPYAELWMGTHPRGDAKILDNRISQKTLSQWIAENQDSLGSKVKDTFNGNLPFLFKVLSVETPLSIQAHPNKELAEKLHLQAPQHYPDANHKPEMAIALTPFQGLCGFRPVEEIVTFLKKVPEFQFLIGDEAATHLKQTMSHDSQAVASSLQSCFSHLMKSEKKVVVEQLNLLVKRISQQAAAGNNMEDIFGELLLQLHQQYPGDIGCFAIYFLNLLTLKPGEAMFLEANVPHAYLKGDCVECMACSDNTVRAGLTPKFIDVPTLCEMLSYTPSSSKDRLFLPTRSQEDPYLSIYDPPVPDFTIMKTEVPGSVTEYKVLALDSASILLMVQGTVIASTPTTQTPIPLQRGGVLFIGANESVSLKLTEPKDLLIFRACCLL
Put plainly: PMI enzyme inhibitors, confirmation, biochemical, fluorescence intensity (AID 1535).

For the next series, the target named is Hexokinase-1 (Homo sapiens, UniProt P19367). As to the kind of experiment: HK1 enzyme inhibition by HKDC1 hits, SAR follow-up, selectivity assay for HKDC1 inhibitor project, biochemical, set 2, resazurin fluorescence coupled readout (AID 588356). The format is functional.
The target in the next series is T4, Hexokinase HKDC1 (Homo sapiens, UniProt Q2TB90).
T4 sequence (Q2TB90 whole entry): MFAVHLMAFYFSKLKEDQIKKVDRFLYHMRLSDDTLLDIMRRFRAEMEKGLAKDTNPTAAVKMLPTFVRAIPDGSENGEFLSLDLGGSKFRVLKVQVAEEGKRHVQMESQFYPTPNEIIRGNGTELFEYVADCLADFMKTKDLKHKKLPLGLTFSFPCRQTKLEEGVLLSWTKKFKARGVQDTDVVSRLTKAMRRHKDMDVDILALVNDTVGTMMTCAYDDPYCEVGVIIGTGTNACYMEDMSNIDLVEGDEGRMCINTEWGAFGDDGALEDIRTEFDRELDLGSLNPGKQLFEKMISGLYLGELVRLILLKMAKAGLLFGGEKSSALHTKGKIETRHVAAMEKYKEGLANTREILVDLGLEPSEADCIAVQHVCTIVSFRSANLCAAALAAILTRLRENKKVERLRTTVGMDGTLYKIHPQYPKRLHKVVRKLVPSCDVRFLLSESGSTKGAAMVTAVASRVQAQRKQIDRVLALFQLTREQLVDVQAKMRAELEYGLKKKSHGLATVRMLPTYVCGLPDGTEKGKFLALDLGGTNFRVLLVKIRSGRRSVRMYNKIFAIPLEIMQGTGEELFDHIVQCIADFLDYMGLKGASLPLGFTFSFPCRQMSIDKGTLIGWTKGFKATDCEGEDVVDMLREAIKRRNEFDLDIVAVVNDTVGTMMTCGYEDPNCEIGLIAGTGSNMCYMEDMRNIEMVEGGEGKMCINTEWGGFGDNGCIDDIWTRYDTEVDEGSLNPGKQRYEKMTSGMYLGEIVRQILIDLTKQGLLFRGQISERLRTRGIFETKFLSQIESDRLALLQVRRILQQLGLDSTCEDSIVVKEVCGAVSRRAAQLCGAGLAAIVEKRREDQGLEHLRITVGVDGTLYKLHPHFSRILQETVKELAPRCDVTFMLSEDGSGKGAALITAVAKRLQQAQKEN
As to the kind of experiment: HKDC1 hexokinase inhibitors, SAR follow-up, biochemical, set 2 (AID 588355). The format is functional.

Series [8] can be described thus: growth suppression of beta-catenin-knockout colon cells, dose response, cell-based, HCT116, human colon tumor (AID 1045).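 Further: HCT116 colon tumor cells with beta catenin knocked out; cells exposed to compound for 60 hours.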 The series is classed as functional.
Series [9] is described as follows: growth suppression of PTEN-null colon cells, dose response, cell-based, HCT116 PTEN knockout (AID 1047).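 Further: HCT116 colon tumor cells with PTEN knocked out; cells exposed to compound for 60 hours before readout; potency for loss of cell viability measured by luminescence.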 The format is functional.
Series [10] concerns the target T5, Apoptotic protease-activating factor 1 (Homo sapiens, UniProt O14727).
T5 sequence (O14727 whole entry): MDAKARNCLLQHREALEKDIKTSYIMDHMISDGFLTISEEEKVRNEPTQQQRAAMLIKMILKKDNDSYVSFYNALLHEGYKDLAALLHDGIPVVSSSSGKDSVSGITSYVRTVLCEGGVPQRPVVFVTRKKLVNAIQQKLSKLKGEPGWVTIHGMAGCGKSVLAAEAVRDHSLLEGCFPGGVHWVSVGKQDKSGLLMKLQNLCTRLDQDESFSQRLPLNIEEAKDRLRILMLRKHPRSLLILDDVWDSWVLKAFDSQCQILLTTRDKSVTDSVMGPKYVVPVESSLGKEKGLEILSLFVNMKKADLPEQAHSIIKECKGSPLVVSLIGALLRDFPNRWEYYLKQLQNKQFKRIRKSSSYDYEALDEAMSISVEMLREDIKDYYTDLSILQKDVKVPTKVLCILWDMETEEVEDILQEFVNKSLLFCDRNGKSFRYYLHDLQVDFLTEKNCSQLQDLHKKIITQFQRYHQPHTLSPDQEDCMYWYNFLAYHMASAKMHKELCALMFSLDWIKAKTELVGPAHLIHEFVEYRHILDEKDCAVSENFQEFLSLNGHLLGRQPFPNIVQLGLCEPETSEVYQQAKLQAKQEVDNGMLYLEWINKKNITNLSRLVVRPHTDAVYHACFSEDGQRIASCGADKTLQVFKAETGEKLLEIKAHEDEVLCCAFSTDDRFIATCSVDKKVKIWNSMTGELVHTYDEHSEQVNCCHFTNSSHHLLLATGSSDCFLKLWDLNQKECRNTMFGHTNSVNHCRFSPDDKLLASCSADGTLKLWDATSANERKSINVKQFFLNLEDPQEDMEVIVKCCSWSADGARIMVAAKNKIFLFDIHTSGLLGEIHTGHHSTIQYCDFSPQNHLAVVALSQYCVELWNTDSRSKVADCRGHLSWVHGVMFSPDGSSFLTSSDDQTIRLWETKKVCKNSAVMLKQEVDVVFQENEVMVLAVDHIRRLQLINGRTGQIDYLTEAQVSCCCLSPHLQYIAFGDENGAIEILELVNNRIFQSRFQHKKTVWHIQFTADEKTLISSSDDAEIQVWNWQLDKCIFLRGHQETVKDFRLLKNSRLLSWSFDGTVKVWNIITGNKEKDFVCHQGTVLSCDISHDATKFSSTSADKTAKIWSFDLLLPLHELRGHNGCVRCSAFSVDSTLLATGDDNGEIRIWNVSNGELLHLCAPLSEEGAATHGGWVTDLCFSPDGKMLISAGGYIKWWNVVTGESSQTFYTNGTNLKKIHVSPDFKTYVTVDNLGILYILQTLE
Put plainly: activation of Apaf-1 mediated apoptosis – fluorescent, uHTS hits, dose response (AID 588554). The series is classed as functional.

The target in series [11] is T2, Cytochrome P450 2D6. The source holds these as a separate data set.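 Further: CYP2D6 member of a cytochrome P450 panel assay.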
In another series the target is T6, Cytochrome P450 1A2 (Homo sapiens, UniProt P05177).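 Further: PubChem cytochrome P450 panel assay, CYP1A2 panel member.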
T6 sequence (P05177 whole entry): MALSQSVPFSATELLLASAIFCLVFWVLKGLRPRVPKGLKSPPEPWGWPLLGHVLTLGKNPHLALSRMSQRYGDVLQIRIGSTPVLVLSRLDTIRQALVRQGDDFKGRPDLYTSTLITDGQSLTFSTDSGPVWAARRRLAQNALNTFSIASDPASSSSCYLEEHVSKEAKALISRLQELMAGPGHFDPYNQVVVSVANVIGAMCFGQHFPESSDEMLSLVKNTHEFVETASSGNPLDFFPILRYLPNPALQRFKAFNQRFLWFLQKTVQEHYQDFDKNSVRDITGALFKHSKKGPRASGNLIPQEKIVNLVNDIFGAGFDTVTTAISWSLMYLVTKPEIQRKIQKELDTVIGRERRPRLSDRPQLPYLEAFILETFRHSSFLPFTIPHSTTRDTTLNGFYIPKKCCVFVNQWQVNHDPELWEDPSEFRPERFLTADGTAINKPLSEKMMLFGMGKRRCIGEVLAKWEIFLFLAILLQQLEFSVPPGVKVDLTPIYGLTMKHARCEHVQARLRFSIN

T2 sequence (P10635 whole entry): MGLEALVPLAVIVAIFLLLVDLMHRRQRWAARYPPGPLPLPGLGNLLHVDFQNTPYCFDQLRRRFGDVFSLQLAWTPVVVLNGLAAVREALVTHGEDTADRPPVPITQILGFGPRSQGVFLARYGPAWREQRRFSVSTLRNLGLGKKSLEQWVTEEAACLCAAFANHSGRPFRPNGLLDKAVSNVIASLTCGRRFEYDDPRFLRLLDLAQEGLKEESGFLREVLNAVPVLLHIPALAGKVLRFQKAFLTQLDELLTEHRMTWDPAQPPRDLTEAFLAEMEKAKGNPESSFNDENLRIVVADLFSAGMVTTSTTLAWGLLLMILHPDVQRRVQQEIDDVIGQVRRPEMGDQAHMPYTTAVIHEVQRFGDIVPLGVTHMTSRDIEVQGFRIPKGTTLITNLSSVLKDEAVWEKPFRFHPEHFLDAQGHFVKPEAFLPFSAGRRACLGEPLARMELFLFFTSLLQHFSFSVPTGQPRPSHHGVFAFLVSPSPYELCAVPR
Chain of Hexokinase-1 (P19367 whole entry): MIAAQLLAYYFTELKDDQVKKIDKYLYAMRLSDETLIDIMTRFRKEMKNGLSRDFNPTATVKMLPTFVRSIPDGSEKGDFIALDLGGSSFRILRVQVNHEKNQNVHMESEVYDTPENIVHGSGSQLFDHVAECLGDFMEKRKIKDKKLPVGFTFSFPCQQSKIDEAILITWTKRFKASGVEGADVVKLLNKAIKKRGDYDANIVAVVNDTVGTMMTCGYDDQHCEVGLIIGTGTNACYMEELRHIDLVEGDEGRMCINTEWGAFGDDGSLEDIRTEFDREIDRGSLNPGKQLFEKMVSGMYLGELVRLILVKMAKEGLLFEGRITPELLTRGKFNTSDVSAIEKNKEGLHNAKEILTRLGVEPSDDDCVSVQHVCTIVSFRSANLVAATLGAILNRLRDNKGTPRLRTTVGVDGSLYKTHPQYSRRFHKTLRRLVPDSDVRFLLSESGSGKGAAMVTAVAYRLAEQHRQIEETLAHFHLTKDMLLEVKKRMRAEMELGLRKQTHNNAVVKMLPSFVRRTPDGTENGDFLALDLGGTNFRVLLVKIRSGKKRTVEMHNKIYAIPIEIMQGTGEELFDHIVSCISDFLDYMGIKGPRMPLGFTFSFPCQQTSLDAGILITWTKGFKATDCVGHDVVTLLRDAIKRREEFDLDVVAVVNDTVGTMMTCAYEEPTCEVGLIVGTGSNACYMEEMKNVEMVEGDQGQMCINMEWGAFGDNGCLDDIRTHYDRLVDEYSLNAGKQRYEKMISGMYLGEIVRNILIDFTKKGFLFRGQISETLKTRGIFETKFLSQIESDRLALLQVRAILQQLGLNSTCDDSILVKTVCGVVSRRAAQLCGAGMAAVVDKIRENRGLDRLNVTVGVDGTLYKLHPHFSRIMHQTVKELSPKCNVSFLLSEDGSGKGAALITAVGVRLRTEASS
Chain of Cytochrome P450 2C19 (P33261 whole entry): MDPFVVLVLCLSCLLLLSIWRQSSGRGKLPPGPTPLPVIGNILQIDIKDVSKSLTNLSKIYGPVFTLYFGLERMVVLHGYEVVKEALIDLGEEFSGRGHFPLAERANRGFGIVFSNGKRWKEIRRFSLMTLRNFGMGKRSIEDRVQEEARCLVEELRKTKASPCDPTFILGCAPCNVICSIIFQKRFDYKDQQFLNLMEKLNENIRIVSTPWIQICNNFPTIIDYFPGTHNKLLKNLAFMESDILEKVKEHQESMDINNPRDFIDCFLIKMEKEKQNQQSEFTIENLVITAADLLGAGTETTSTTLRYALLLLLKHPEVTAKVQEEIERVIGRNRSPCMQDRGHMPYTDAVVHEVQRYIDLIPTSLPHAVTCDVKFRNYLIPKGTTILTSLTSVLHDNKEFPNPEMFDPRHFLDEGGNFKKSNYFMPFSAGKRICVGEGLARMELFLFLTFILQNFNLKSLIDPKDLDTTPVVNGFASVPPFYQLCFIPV
Chain of Phosphomannomutase 2 (O15305 whole entry): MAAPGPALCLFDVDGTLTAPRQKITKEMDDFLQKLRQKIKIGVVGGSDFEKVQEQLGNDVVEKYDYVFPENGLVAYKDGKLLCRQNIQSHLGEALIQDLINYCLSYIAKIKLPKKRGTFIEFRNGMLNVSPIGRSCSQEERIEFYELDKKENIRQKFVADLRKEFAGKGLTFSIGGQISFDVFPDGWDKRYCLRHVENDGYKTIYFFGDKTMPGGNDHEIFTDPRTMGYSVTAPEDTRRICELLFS

As for `Cc1cc(C)cc(NC(=O)c2ccc([N+](=O)[O-])o2)c1`, the IC50 (usually the concentration needed to halve the response being measured) was 43.4 µM (inactive) with HEK293 [1], 0.85 µM (active) with Jurkat, 21.8 µM (inactive) in the series on HEK293 [3] and > 80 µM (inactive) in series [4]. Besides, the AC50 (as a rule, the concentration giving half of the maximal activity seen) in series [2] was 16.6 µM (active).
On to `Cc1ccc(S(=O)(=O)N2CCOCC2)cc1NC(=O)COC(=O)CCC(=O)c1cccs1`, for which the AC50 at Cytochrome P450 2D6 [5] was 31.6 µM (inconclusive); on Cytochrome P450 2C19 it was 39.8 µM (inconclusive); in series [6], 87.5 µM (active).
With `OCc1ccccc1/N=c1\ssnc1Cl`, the IC50 on Phosphomannomutase 2 is > 100 µM (inactive); in series [7], 35.8 µM (active).
Turning to `COc1cc2c(cc1OC)-c1cc(NCCN(C)C)nc(=O)n1CC2`, the IC50 at Hexokinase-1 and at Hexokinase HKDC1 was > 80 µM (inactive) throughout.
On to `CCOc1ccc(C(=O)/C=C/Nc2ccc(S(=O)(=O)N=C(N)N)cc2)cc1`, for which the EC50 – broadly, the midpoint of the concentration-response curve – is 21.8 µM (active) in series [8], 16.3 µM (active) in [9] and 6.28 µM (active) in series [10].
Regarding `Cc1ncc([N+](=O)[O-])n1CC(C)O` (stereo not drawn) [SECNIDAZOLE], the AC50 entry on Cytochrome P450 2D6 [11] was “inconclusive”.
Take `Cc1cccc(C)c1N=C1NCCCS1` [XYLAZINE]: the AC50 is 39.8 µM (inconclusive) and 10 µM (inconclusive) at Cytochrome P450 2D6 [5]; “inactive” on Cytochrome P450 1A2.
